Assay results: paper PMC10766610, “DCAF1-based PROTACs with activity against clinically validated targets overcoming intrinsic- and acquired-degrader resistance” (Nature Communications, 2024)
Like-named read-outs stand apart in the source and are kept apart here.

Key:
[1] = Viability by FSC/SSC gate (flow cytometry) in TMD8 BTK-GFP/mCh cells; format: cell-based, human; set-up: Max dose w/ Gating Viability >25%: unit: µM; settings: human, TMD8 BTK-GFP/mCh cells, TMD8 BTK-GFP/mCh, 24 h
Procedure: (§1) For flow cytometry measurements, 25,000 exponentially growing TMD8 BTK-GFP/mCh cells were plated in 100 μL of each well of a 96-well plate and grown for 24 h. Cells were then dosed with corresponding compounds and doses from 10 mM DMSO stock for 24 h, after which GFP and mCherry fluorescence was read with a Beckmann Coulter Cytoflex. For competition experiment, both compounds were added at the same time and dosed for 24 h. Cells were gated based on Forward & Side Scatter and selection for Single cells using SSC-A vs. SSC-H. Further, the population of viable cells was defined by the forward & side-scatter characteristics of DMSO-treated cells. […] Effects on viability were measured by the reduction of the percentage of cells included in this viable-population gate with increasing doses of compound tested. Degradation of BTK was calculated based on subtracting background (BG) fluorescence of parental TMD8 signal via (GFP-BG)/(mCherry-BG) of viable cells. Median ratios of three technical (different wells) replicates were used to calculate daily averages. Each compound dose–response was generated via three biological replicates (different days of experiment). Degradation curve parameters (DC50 & Abs. DC50 & max. Deg) were extracted using GraphPad Prism’s 4-parameter logistic curve fitting.
(§2) The viability window was determined by measuring the GI50 of viability based on the percentage of cells included in the viable gate and comparing it to the DC50 of degradation. The fold-change difference describing this window is [GI50 Viability / DC50 Degradation], where values above 1 indicate a positive (lower DC50 degradation than AC50 viability) window.

TMD8 BTK-GFP/mCh cells = test: as above; format: cell-based, human; set-up: Max dose w/ Gating Viability >25%: unit: µM; settings: TMD8 BTK-GFP/mCh, 24 h
Procedure: as §1, §2

[2] = system: TMD8 WT and TMD8 CRBN resist. cells; test: CellTiter-Glo viability, TMD8 WT vs CRBN resist. cells; format: cell-based, human; settings: CellTiter-Glo proliferation
Procedure: TMD8 cells were grown in the presence of a CRBN-BTK PROTAC CBt using a gradual dose increase. Start treatment was 0.1 nM for 6 weeks, followed by 3 weeks at 0.4 nM and another 4 weeks at 10 nM to finally obtain CBt resistant TMD8 cells (TMD8 CRBN resist.).
d) Viability measured by cell titer-Glo for DBt-10 (green) vs (13) (purple) in WT (solid) vs CRBN resist.
(dotted) TMD8 cells. Data represents average ± standard deviation from n=3 replicates.
e) Repeat of the viability measured by cell titer-Glo for DBt-10 (green) vs (13) (purple) in WT (solid) vs
CRBN resist. (dotted) TMD8 cells with adjusted dose response range. Data represents average ±
standard deviation from n=3 replicates.
(§3) Source data are provided as a Source Data file

BTK [3] = molecular target: T1, BTK (Homo sapiens, UniProt Q06187); test: BTK-GFP degradation by flow cytometry in TMD8 BTK-GFP/mCh cells; format: cell-based; set-up: performed with full-length BTK and endogenous DCAF1; expressed in transfected cells; host or cells: TMD8 cells, lentiviral, blasticidin-selected (TMD8 BTK-GFP/mCh); settings: TMD8 BTK-GFP/mCh, 24 h; read-out: DC50 BTK-Degradation
Procedure: The bicistronic pLenti6 BTK-GFP-chysel-mCHERRY expression vector was cloned as described[92] using Gateway cloning with a pENTR-BTK plasmid lacking a STOP codon. TMD8 cells were then infected with lentiviral particles from this vector as described above and stably transfected cells were selected with blasticidin at a concentration of 10 μg/mL referred to as TMD8 BTK-GFP/mCh cells.
For flow cytometry measurements, 25,000 exponentially growing TMD8 BTK-GFP/mCh cells were plated in 100 μL of each well of a 96-well plate and grown for 24 h. Cells were then dosed with corresponding compounds and doses from 10 mM DMSO stock for 24 h, after which GFP and mCherry fluorescence was read with a Beckmann Coulter Cytoflex. For competition experiment, both compounds were added at the same time and dosed for 24 h. Cells were gated based on Forward & Side Scatter and selection for Single cells using SSC-A vs. SSC-H. Further, the population of viable cells was defined by the forward & side-scatter characteristics of DMSO-treated cells. To confirm cells outside of this population as non-viable, cells were plated and treated for 24 h, washed with PBS and stained for 30 min with two markers of early (Annexin-V) and late (LIVE/DEAD) apoptosis. Effects on viability were measured by the reduction of the percentage of cells included in this viable-population gate with increasing doses of compound tested. Degradation of BTK was calculated based on subtracting background (BG) fluorescence of parental TMD8 signal via (GFP-BG)/(mCherry-BG) of viable cells. Median ratios of three technical (different wells) replicates were used to calculate daily averages. Each compound dose–response was generated via three biological replicates (different days of experiment). Degradation curve parameters (DC50 & Abs. DC50 & max. Deg) were extracted using GraphPad Prism’s 4-parameter logistic curve fitting.

BRD9 [4] = molecular target: T2, BRD9 (Homo sapiens, UniProt Q9H8M2); test: Immunoblot of BRD9 in HEK293 BRD9-HiBiT/FF/CAS9 cells; format: cell-based; set-up: host or cells: HEK293/BRD9-HiBiT knock-in; clone and BRD9-HiBiT/CAS9/FF clone; settings: 1000 nM, 6 h
T2 sequence (Q9H8M2 1-597): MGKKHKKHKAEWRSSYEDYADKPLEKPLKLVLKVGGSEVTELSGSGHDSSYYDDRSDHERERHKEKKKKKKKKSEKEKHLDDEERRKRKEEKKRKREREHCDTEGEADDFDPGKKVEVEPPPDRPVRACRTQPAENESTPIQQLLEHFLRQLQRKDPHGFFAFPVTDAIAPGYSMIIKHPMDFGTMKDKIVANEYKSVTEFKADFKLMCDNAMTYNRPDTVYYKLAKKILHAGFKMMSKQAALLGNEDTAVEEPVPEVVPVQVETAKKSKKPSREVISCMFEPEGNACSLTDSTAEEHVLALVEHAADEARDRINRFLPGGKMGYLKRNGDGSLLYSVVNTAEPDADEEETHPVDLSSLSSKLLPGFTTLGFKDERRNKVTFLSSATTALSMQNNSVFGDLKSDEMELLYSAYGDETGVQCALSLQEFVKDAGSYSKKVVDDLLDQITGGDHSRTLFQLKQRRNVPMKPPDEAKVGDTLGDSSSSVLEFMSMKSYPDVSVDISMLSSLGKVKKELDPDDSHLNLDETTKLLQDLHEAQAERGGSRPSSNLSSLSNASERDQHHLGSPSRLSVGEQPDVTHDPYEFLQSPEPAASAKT
Procedure: (§4) Whole cell lysates for immunoblotting were prepared by pelleting cells at 4 °C (300 g) for 3 min. Cell pellets were then washed 1x with PBS and resuspended in RIPA lysis buffer (VWR, cat # 97063-270) supplemented with protease (Thermo Scientific, cat # A32955) and phosphatase (Thermo Scientific, cat # A32957) inhibitor tablets. Lysates were clarified at 16,000 × g for 15 min at 4 °C prior to quantification by Lowry assay (Bio-Rad cat # 5000113 and cat # 5000114). Whole-cell lysates were loaded into 4–20% Criterion TGX Precast 18 well gels (Bio-Rad, cat # 5671094) and separated by electrophoreses at 120 V for 1 h. The gels were transferred to a nitrocellulose membrane using the Trans-Blot Turbo (Bio-Rad) for 7 min and then blocked for 1 h at room temperature in Odyssey blocking buffer (LICOR Biosciences, cat # 927-50000). Membranes were probed with the appropriate primary antibodies (diluted 1:1000) overnight at 4 °C in 20% Odyssey blocking buffer in 1x TBST. Membranes were washed three times with 1x TBST (5 min per wash), and then incubated with IRDye goat anti-mouse (LICOR, cat # 926-32210) or goat anti-rabbit (LICOR, cat # 926-32211) secondary antibody diluted 1:10,000 in 20% Odyssey blocking buffer for 1 h at room temperature. After three 5-min washes with 1x TBST, the immunoblots were visualized using the ODYSSEY Infrared Imaging System (LICOR). Alternatively, SDS-PAGE resolved proteins were transferred to a PVDF membrane using a wet blotting system (Invitrogen). Membranes were blocked in 5% Milk-PBS-Tween 20 for 1 h and incubated with primary antibody over night at 4 °C. Secondary antibodies (secondary antibody: anti-rabbit, goat pAb to Rb-IgG (Abcam, #7090); secondary antibody: anti-mouse, sheep IgG HRP-linked (GE healthcare, #NA931V)) were incubated for 1 h at room temperature (RT) before blots were developed on film using the detection kit SuperSignal West Femto Maximum Sensitivity Substrate (Thermo Fisher, #34096).

BRD9 [5] = molecular target: T2, BRD9; test: Rescue of DBr-1 mediated BRD9 degradation by co-treatment, BRD9-HiBiT HEK293 cells; format: cell-based; set-up: host or cells: HEK293/BRD9-HiBiT knock-in; clone and BRD9-HiBiT/CAS9/FF clone; settings: (13) 1 µM, OICR8268 10 µM, BI-9564 10 µM
Procedure: Supplementary figure 4. Competition experiments with DBr-1 and DBr-1-N […]
a) BRD9-HiBiT signal detection of samples pretreated with either DMSO, 10µM OICR-8268, 1µM […]
Data represents average ± standard deviation from n=3 replicates. DC50 values and […]
maximal observed degradation are shown below. […]
b) Cell titer Glow assay of BRD9 HiBiT cells. Cells pretreated with either DMSO, 10µM OICR-8268, […]
Data represents average ± standard deviation from n=3 replicates.
as §3

BRD9 [6] = molecular target: T2, BRD9; test: Capillary western of BRD9 in 768-O cells; format: cell-based; settings: 768-O cells lacking VHL expression
Procedure: Protein peaks were analyzed using Compass for Simple Western version 5.0.1 (ProteinSimple), area under the curve for both α-tubulin ([…]) and BRD9 (90 kDa) per capillary was extracted and BRD9 area was normalized to α-tubulin area on a per-capillary basis before each sample was normalized to the DMSO for each run of three triplicates.

BRD7 = molecular target: T3, BRD7 (Homo sapiens, UniProt Q9NPI1); test: BRD7-HiBiT protein abundance luminescence assay in HEK293 cells
T3 sequence (Q9NPI1 1-651): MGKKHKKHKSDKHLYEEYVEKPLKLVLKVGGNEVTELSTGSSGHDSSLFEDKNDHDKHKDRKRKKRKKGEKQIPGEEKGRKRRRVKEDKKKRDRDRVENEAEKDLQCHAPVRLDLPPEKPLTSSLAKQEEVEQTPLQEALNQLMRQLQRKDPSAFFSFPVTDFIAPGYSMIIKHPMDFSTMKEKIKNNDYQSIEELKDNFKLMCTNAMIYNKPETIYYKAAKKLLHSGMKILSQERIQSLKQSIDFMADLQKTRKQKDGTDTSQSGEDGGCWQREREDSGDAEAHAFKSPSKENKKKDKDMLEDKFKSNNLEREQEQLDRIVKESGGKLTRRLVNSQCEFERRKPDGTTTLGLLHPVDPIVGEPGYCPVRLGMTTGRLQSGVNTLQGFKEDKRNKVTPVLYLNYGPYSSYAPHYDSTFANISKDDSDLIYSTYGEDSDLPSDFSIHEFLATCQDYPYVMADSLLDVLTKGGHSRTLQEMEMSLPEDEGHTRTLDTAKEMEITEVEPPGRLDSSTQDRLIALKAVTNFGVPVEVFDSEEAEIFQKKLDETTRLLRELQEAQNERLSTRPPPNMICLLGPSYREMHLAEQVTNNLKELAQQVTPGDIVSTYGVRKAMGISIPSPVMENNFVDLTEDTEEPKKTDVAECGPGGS
Source text: HEK293/BRD9-HiBiT pools (PROMEGA # CS3023120) and HEK293/BRD7-HiBiT pools (PROMEGA # CS3023124) were purchased from Promega. We performed clonal selection for HEK293/BRD9-HiBiT cell line using single-cell sorting and screening for HiBiT expression using Nano-Glo HiBiT Lytic Detection System (Promega # N3030). The HEK293/BRD9-HiBiT clone and HEK293/BRD7-HiBiT pool to perform standard HiBiT assays.

BTK [7] = molecular target: T1, BTK; test: Immunoblot of BTK in TMD8 WT and CRBN (CBt) resistant cells; format: cell-based; set-up: performed with full-length BTK and endogenous DCAF1; expressed in transfected cells; host or cells: TMD8 cells, lentiviral, blasticidin-selected (TMD8 BTK-GFP/mCh); settings: 24 h; 0.1 µM CBt, 1 µM DBt-10
Procedure: as §4, with “Alternatively, SDS-PAGE resolved proteins were transferred to a PVDF membrane using a wet blotting system (Invitrogen). Membranes were blocked in 5% Milk-PBS-Tween 20 for 1 h and incubated with primary antibody over night at 4 °C. Secondary antibodies (secondary antibody: anti-rabbit, goat pAb to Rb-IgG (Abcam, #7090); secondary antibody: anti-mouse, sheep IgG HRP-linked (GE healthcare, #NA931V)) were incubated for 1 h at room temperature (RT) before blots were developed on film using the detection kit SuperSignal West Femto Maximum Sensitivity Substrate (Thermo Fisher, #34096).” left out

T1 sequence (Q06187 2-659 limits assumed): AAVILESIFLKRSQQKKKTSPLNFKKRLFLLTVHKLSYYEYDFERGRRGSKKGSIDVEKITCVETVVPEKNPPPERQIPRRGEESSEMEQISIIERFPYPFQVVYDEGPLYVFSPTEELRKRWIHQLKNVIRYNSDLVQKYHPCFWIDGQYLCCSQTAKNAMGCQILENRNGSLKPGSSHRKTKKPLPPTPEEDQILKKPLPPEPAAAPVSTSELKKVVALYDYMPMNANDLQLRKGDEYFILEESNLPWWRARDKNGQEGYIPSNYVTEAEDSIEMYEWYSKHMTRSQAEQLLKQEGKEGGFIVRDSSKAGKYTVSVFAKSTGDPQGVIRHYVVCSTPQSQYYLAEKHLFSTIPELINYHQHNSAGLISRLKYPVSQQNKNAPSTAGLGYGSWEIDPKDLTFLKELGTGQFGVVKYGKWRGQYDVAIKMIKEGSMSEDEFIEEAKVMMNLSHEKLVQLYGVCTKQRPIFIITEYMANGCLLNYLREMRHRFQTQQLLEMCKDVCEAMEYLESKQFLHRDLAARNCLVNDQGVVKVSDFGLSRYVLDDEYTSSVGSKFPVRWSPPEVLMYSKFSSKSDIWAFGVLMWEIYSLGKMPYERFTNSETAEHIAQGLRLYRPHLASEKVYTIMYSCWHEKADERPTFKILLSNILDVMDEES

CCN(CC)Cc1ccc(-c2cc3c(-c4cc(F)cc(NC(=O)c5ccc(C(C)(C)O)cc5F)c4C)ncnc3[nH]2)cc1 [compound 17, reference compound]
GI50 at 24 h ([1]; read-out: Abs GI50): 6.82 µM | GI50 at 24 h ([1]; read-out: GI50): 6.75 µM | Max dose w/ Gating Viability >25% (TMD8 BTK-GFP/mCh cells): 5.39 | relative potency change between CBt sensitive and resistant TMD8 cells [2]: neither inhibitor showed any relative potency change | DC50 (BTK [3]): > 25 µM

C=CC(=O)N1CCC[C@@H](n2nc(-c3ccc(Oc4ccccc4)cc3)c3c(N)ncnc32)C1 [ibrutinib]
relative potency change between CBt sensitive and resistant TMD8 cells [2]: neither inhibitor showed any relative potency change

COc1cc(-c2cn(C)c(=O)c3cnccc23)c(OC)cc1CN(C)C [BI-9564, reference compound]
BRD9 protein reduction by individual binders (BRD9 [4]): No BRD9 protein reduction | effect of co-treatment on DBr-1 mediated BRD9 degradation (BRD9 [5]): fully rescue the BRD9 degradation

COc1cc(-c2cn(C)c(=O)c3cnccc23)cc(OC)c1CN1CCN(CCCCCOc2cc(-c3scnc3C)ccc2CNC(=O)[C@@H]2C[C@@H](O)CN2C(=O)[C@@H](NC(=O)C2(F)CC2)C(C)(C)C)CC1 [VZ185]
BRD9 levels in 768-O cells (BRD9 [6]): intrinsic resistance | maximal observed degradation (BRD7), % in brackets (BRD7; 2 h): 21% | DC50 (BRD7; read-out: rel. DC50 (BRD7), 2 h): 0.137 µM

COc1ccc(C(=O)N2CCC3(CCN(CCc4ccc(-c5cc6c(-c7cc(F)cc(NC(=O)c8ccc(C(C)(C)O)cc8F)c7C)ncnc6[nH]5)cc4)CC3)CC2)cc1N1CCC(=O)NC1=O [CBt, reference compound]
BTK degradation in TMD8 CBt sensitive (WT) vs resistant cells (BTK [7]): BTK degradation only in the WT but not in the CBt-resistant TMD8 cells
